A short description of data set [1]: stability of the polymorphic form. Format: physicochemical.
Data set [2] in a line: DSC of disturbed sample: solid state phase transformation to Form A. Format: physicochemical. Conditions: sample disturbed (scratching/stressed), DSC heating from 30° C. to approximately 200° C. at 10° C. per minute; followed by melt of Form A at about 160° C. The text has this: Characterization of Form A of cilostazol, Form B of cilostazol, and Form C of cilostazol was further completed using DSC thermograms, shown in FIGS. 3, 4, and 5, respectively, with DSC thermograms for combinations of Form A and Form B; Form B and Form C; and Forms A, B, and C are shown in FIGS. 6, 7, and 8 respectively. DSC data were generated using a Mettler-Toledo DSC 821^e(Columbus, Ohio) with a Julabo FT900 intercooler chiller (Julabo Company; Allentown, Pa.). In general, samples were analyzed in a vented, sealed aluminum pan. Because the endothermic peak may vary depending upon the rate of heating and the calibration and precision of the instrument, with the amount of peak variation dependent upon the heating rate used, all thermograms included herein were run under the same, consistent conditions: heating at 10° C. per minute under a nitrogen purge at 40 mL/minute. The resultant sample of Example 1A was disturbed with scratching, which caused the cilostazol sample to undergo a solid state phase transformation at approximately 119° C. followed by an endotherm of melt at approximately 160° C. (Form A) during heating by DSC from 30° C. to approximately 200° C. at 10° C. per minute. When the sample is stressed and reheated (as detailed in Example 2A), the sample undergoes a solid state phase transformation at approximately 147° C. followed by an endotherm of melt at about 160° C. […]

Data set [3] can be described thus: aqueous solubility of cilostazol polymorphic forms. Conditions: for solubility relative to Form A: suggested by lower melting point than Form A in DSC thermogram (FIG. 8). It is filed as physicochemical.
A short description of the next data set: bioavailability. Format: in vivo. Conditions: Form A as prepared by the procedures of the '479 patent.

On to `O=C1CCc2cc(OCCCCc3nnnn3C3CCCCC3)ccc2N1` [Form C, 6-[4-(1-cyclohexyl-1H-tetrazol-5-yl)butoxy]-3,4-dihydro-2(1H)-quinolinone], for which the “stability of the form” value in data set [1] is on record as “stable”. For the same compound, in data set [2], the “solid state phase transformation temperature” value is “approximately 147 °C”. Also, the “solubility relative to Form A” value in data set [3] is “more soluble than Form A”.

Consider `O=C1CCc2cc(OCCCCc3nnnn3C3CCCCC3)ccc2N1` [Form A, 6-[4-(1-cyclohexyl-1H-tetrazol-5-yl)butoxy]-3,4-dihydro-2(1H)-quinolinone], for which the bioavailability entry in the data set “bioavailability” was “low”. Further, in data set [3] (Form A as prepared by the procedures of the '479 patent), the aqueous solubility entry was “low”.

Take `O=C1CCc2cc(OCCCCc3nnnn3C3CCCCC3)ccc2N1` [Form B, 6-[4-(1-cyclohexyl-1H-tetrazol-5-yl)butoxy]-3,4-dihydro-2(1H)-quinolinone]: the “stability of the form” value in data set [1] was “stable”. Moreover, the “solid state phase transformation temperature” value in data set [2] was “approximately 119 °C”. In data set [3], the “solubility relative to Form A” value was “more soluble than Form A”.
